Common to all, as to assay type: in vivo
For test [1], the system named is Tetranychus urticae (Two-Spotted Spider Mite). As to the kind of experiment: Example B5: Tetranychus urticae (Two-Spotted Spider Mite), feeding/contact activity. The settings on record: foliar, 192 h, application rate of 200 ppm, mixed population (mobile stages) on sprayed bean leaf discs, 8 days after infestation. Here is the method:
Example B5: Tetranychus urticae (Two-Spotted Spider Mite): Feeding/Contact Activity
Bean leaf discs on agar in 24-well microtiter plates were sprayed with aqueous test solutions prepared from 10′000 ppm DMSO stock solutions. After drying the leaf discs were infested with a mite population of mixed ages. The samples were assessed for mortality on mixed population (mobile stages) 8 days after infestation.

For test [2], the system named is Plutella xylostella (Diamond Back Moth). The test is described as follows: Example B3: Plutella xylostella (Diamond Back Moth), artificial diet. The settings on record: 192 h, application rate of 200 ppm, eggs, treated artificial diet, 8 days after infestation, read-out: control in at least one of the two categories (mortality or growth inhibition). On the procedure: Example B3: Plutella xylostella (Diamond Back Moth)
24-well microtiter plates with artificial diet were treated with aqueous test solutions prepared from 10′000 ppm DMSO stock solutions by pipetting. After drying, Plutella eggs were pipetted through a plastic stencil onto a gel blotting paper and the plate was closed with it. The samples were assessed for mortality and growth inhibition in comparison to untreated samples 8 days after infestation. The following compounds gave an effect of at least 80% control in at least one of the two categories (mortality or growth inhibition) at an application rate of 200 ppm: P1.2, P1.15, P1.51, P2.1, P2.2, P2.5, P2.10, P2.15, P2.16, P5.1, P5.2, P5.3, P7.1, P8.1

Test [3] concerns Diabrotica balteata (Corn Root Worm). As to the kind of experiment: Example B1: Diabrotica balteata (Corn Root Worm), sprayed maize sprouts. The settings on record: 96 h, application rate of 200 ppm, L2 larvae on sprayed maize sprouts, 4 days after infestation, read-out: control in at least one of the two categories (mortality or growth inhibition). On the procedure:
Example B1: Diabrotica balteata (Corn Root Worm)
Maize sprouts placed onto an agar layer in 24-well microtiter plates were treated with aqueous test solutions prepared from 10′000 ppm DMSO stock solutions by spraying. After drying, the plates were infested with L2 larvae (6 to 10 per well). The samples were assessed for mortality and growth inhibition in comparison to untreated samples 4 days after infestation.
The following compounds gave an effect of at least 80% control in at least one of the two categories (mortality or growth inhibition) at an application rate of 200 ppm: P1.2, P2.1, P2.2, P2.5, P2-17, P3.4, P7.1, P8.1

Test [4] has as its system Euschistus heros (Neotropical Brown Stink Bug). The test is described as follows: Example B2: Euschistus heros (Neotropical Brown Stink Bug), sprayed soybean leaves. The settings on record: 120 h, application rate of 200 ppm, N2 nymphs on sprayed soybean leaves, 5 days after infestation, read-out: control in at least one of the two categories (mortality or growth inhibition). Here is the method:
Example B2: Euschistus heros (Neotropical Brown Stink Bug)
Soybean leaves on agar in 24-well microtiter plates were sprayed with aqueous test solutions prepared from 10′000 ppm DMSO stock solutions. After drying the leaves were infested with N2 nymphs. The samples were assessed for mortality and growth inhibition in comparison to untreated samples 5 days after infestation.
The following compounds gave an effect of at least 80% control in at least one of the two categories (mortality or growth inhibition) at an application rate of 200 ppm: P2.1., P8.1

Take `Cc1nc(C2CCN(C(=O)c3cc(C#N)c(-c4ccc(C(F)(F)F)cc4)cc3C(F)(F)F)CC2)no1` [Compound P1.1, 5-[4-(5-Methyl-1,2,4-oxadiazol-3-yl)piperidine-1-carbonyl]-4-(trifluoromethyl)-2-[4-(trifluoromethyl)phenyl]benzonitrile]: the mortality at 200 ppm in test [1] was no less than 80%.

As to `CCOc1cc(-c2ccc(C(F)(F)F)cc2)c(C#N)cc1C(=O)N1CCC(CSCC)CC1` [Compound P1.46, 4-Ethoxy-5-[4-(ethylsulfanylmethyl)piperidine-1-carbonyl]-2-[4-(trifluoromethyl)phenyl]-benzonitrile], the mortality at 200 ppm in test [1] was no less than 80%.

As to `N#Cc1cc(C(=O)N2CCN(c3ncc(Cl)cc3Cl)CC2)c(C(F)(F)F)cc1-c1ccc(C(F)(F)F)cc1` [Compound P2.1, 5-[4-(3,5-Dichloro-2-pyridyl)piperazine-1-carbonyl]-4-(trifluoromethyl)-2-[4-(trifluoromethyl)phenyl]benzonitrile], the percent control (mortality or growth inhibition) at 200 ppm in test [2], in test [3] and in test [4] was no less than 80% in each case. Moreover, the mortality at 200 ppm in test [1] was no less than 80%.

In the case of `CCOc1cc(-c2ccc(C(F)(F)F)cc2)c(C#N)cc1C(=O)N1CCN(c2ncc(Cl)cc2Cl)CC1` [Compound P2.5, 5-[4-(3,5-Dichloro-2-pyridyl)piperazine-1-carbonyl]-4-ethoxy-2-[4-(trifluoromethyl)-phenyl]-benzonitrile], the percent control (mortality or growth inhibition) at 200 ppm in test [2] and in test [3] was no less than 80% throughout. The same molecule yielded a mortality at 200 ppm in test [1] of no less than 80%.

Molecule `CCC[S+]([O-])CC1CN(C(=O)c2cc(C#N)c(-c3ccc(C(F)(F)F)cc3)cc2C(F)(F)F)C1` (stereo not shown) [Compound P3.7, 5-[3-(Propylsulfinylmethyl)azetidine-1-carbonyl]-4-(trifluoromethyl)-2-[4-(trifluoromethyl)phenyl]-benzonitrile] had a mortality at 200 ppm in test [1] of no less than 80%.

The molecule `CCCSCC1CN(C(=O)c2cc(C#N)c(-c3ccc(C(F)(F)F)cc3)cc2C(F)(F)F)C1` [Compound P3.9, 5-[3-(propylsulfanylmethyl)azetidine-1-carbonyl]-4-(trifluoromethyl)-2-[4-(trifluoromethyl)-phenyl]benzonitrile] registered a mortality at 200 ppm in test [1] of no less than 80%.

Regarding `Cc1nc(C2CCN(C(=O)c3cc(C#N)c(-c4ccc(C(F)(F)F)cc4)c(C#N)c3C)CC2)no1` [Compound P6.1], in test [1], the mortality at 200 ppm is no less than 80%.

`NC(=S)c1cc(C(=O)N2CCN(c3ncc(Cl)cc3Cl)CC2)c(C(F)(F)F)cc1-c1ccc(C(F)(F)F)cc1` [Compound P8.1, 5-[4-(3,5-Dichloro-2-pyridyl)piperazine-1-carbonyl]-4-(trifluoromethyl)-2-[4-(trifluoromethyl)phenyl]benzenecarbothioamide]: the percent control (mortality or growth inhibition) at 200 ppm in test [2], in test [3] and in test [4] was no less than 80% each time. Besides, in test [1], the mortality at 200 ppm is no less than 80%.

A word on the mortality: it is the share of the test organisms that died.

Source of the values: patent publication US12604895B2, “Pesticidally active cyclic amine compounds” (SYNGENTA CROP PROTECTION AG, priority 2020, dated 2026).
